In patent US20080227809A1, “Arylalkylamine Vanadium (V) Salts for the Treatment and/or Prevention of Diabetes Mellitus” (GENMEDICA THERAPEUTICS SL, priority 2004, published 2008):
Entries after “also recorded” stand apart in the source; their conditions may differ.

How the values were obtained:
[1] = system: isolated rat adipocytes; assay: glucose transport (2-deoxyglucose uptake) in isolated rat adipocytes; assay type: cell-based; details: for stimulatory effect on glucose transport in the presence of semicarbazide: 1 mM semicarbazide (SSAO inhibitor); for stimulation of glucose transport: 45 min incubation
Description: In order to determine whether salts formed by vanadate and benzylamine could produce an insulin mimetic effect, the effect of increasing concentrations of hexaquis(benzylammonium) decavanadate on glucose transport activity in isolated rat adipocytes was tested. Hexaquis(benzylammonium) decavanadate induced the stimulation of glucose transport which was perceptible from concentrations of 0.5 μM, with a maximal effect observed 2.5 μM and the semimaximal effect above 1 μM. […] The maximum effect provoked by incubation with hexaquis(benzylammonium) decavanadate was greater than that produced by the presence of benzylamine and vanadate in combination (FIG. 1). […] In similar assays, the activity of hexaquis(benzylammonium) decavanadate, pentaquis(benzylammonium) decavanadate and tetraquis(benzylammonium) decavanadate on glucose transport activity in isolated rat adipocytes were analyzed.
To determine the possible insulin mimetic effect of certain vanadium arylalkylamines, the capacity of these compounds to enhance glucose transport in isolated rat adipocytes was tested. Adipose cells from Wistar rats were incubated for 45 minutes in basal conditions (Basal) or in the presence of 100 nM insulin (Ins), and different concentrations of. hexaquis(benzylammonium) decavanadate (B6V10) in the absence or in the presence of 1 mM semicarbazide (SCZ). Subsequently, 2-DG transport was measured over a 5 min. interval.
The effects of the three tested compounds (B6V10, B5V10 and B4V10) were compared. Adipose cells from Wistar rats were incubated for 45 minutes in basal conditions (Basal) or in the presence of 100 nM insulin (Ins), and different concentrations of. decavanadate (V10), hexaquis(benzylammonium) decavanadate (B6V10), pentaquis(benzylammonium) decavanadate (B5V10) or tetraquis(benzylammonium) decavanadate (B4V10) in the absence or in the presence of 1 mM semicarbazide (SCZ). 2-DG transport was measured over 5 min. intervals. […] The stimulation of all three compounds on glucose transport was blocked in the presence of semicarbazide.
In additional experiments, compounds shown in FIG. 6A (named 2-(4-fluoro-phenyl)-ethylamine (compound A), 3-phenyl-propylamine (compound B), 4-fluoro-benzylamine (compound C) and 4-phenyl-butylamine (compound D)) were assessed using the experimental methods set forth above for the capacity to stimulate 2-DG uptake in isolated rat adipocytes. Adipose cells from Wistar rats were incubated for 45 minutes in basal conditions (Basal) or in the presence of 100 nM insulin (Ins), and different concentrations of vanadium salts of 2-(4-fluoro-phenyl)-ethylamine (compound A), 3-phenyl-propylamine (compound B), 4-fluoro-benzylamine (compound C) and 4-phenyl-butylamine (compound D). 2-DG transport was measured over 5 min.
(§1) The effects of incubation with semicarbazide or phosphatidylinositol 3-kinase inhibitors were also investigated. Adipose cells were incubated with B6V10 (25 μM, 45 min) in the absence or presence of wortmannin (2 μM, 45 min), LY294002 (10 μM, 45 min) or semicarbazide (1 mM, 45 min) and thereafter 2-deoxyglucose uptake was determined during 5 min. Activation of protein kinase B phosphorylation induced by B6V10 was blocked by semicarbazide and it was not observed by decavanadate. In addition, phosphatidylinositol 3-kinase inhibitors wortmannin and LY294002 blocked B6V10-induced glucose transport (FIG. 7E).

[2] = system: protein kinase B; assay: protein kinase B phosphorylation in isolated rat adipocytes; assay type: cell-based; details: 25 μM
Description: (§2) Isolated fat cells were disrupted for total membrane preparation by hypo-osmotic lysis in a 20 mM HES buffer and an antiprotease and antiphosphatase cocktail as reported by Abella et al. (2003, Diabetes 52: 1004-1013). Protein concentrations were determined by the Bradford method (Bradford, 1976, Anal. Biochem. 72: 248-254) with gamma-globulin as protein concentration standard. Immunoprecipitation and immunoblot assays were performed as previously described by Abella et al. (2004, Id.) with the use of a monoclonal antiphosphotyrosine antibody for the immunoprecipitation and an anti-insulin receptor antibody for immunobloting, respectively. SDS-polyacrylamide gel electrophoresis was performed on membrane proteins following conventional procedures. Proteins were transferred to Immobilon and immunoblotting was performed as reported by Castello et al. (1994, J. Biol. Chem. 269: 5905-5912).
The mechanism of action of B6V10 was investigated in isolated rat adipocytes. Adipose cells from Wistar rats were incubated for different times in the presence of 25 μM hexaquis(benzylammonium) decavanadate (B6V10). Cells were also incubated in the presence of insulin (100 nM, 45 min), decavanadate (25 μM, 45 min) or semicarbazide (1 mM, 45 min). Subsequently, 2-deoxyglucose uptake (results shown in FIG. 7A), tyrosine phosphorylation of insulin receptor (FIG. 7B), phospho-Thr^308-protein kinase B (FIG. 7C) and phospho-Ser^473-protein kinase B (FIG. 7D) was measured. […] The phosphorylation of protein kinase B induced by B6V10 was parallel to activation of glucose transport (FIGS. 7C and 7D).
as §1

[3] = system: insulin receptor; assay: tyrosine phosphorylation of insulin receptor in isolated rat adipocytes; assay type: cell-based; details: 25 μM
Description: as §2
The mechanism of action of B6V10 was investigated in isolated rat adipocytes. Adipose cells from Wistar rats were incubated for different times in the presence of 25 μM hexaquis(benzylammonium) decavanadate (B6V10). […] Subsequently, 2-deoxyglucose uptake (results shown in FIG. 7A), tyrosine phosphorylation of insulin receptor (FIG. 7B), phospho-Thr^308-protein kinase B (FIG. 7C) and phospho-Ser^473-protein kinase B (FIG. 7D) was measured. […]

[4] = system: streptozotocin-induced diabetic rats; assay: chronic subcutaneous (osmotic minipump) treatment, glycemia of streptozotocin (45 mg/kg) diabetic rats; assay type: in vivo, rat; details: for effect on glycemia: 2.5 μmol/kg/day subcutaneous by osmotic minipumps, about two weeks
Description: Insulin concentrations were determined before and after treatment.
The effect of chronic administration of hexaquis(benzylammonium) decavanadate on glycemia from diabetic rats was determined. Thus, diabetes was induced in rats by intravenous administration of streptozotocin, which destroys the β-pancreatic cells that produce insulin.
Chronic in vivo efficacy of B6V10 was evaluated in streptozotocin-induced diabetic rats and in db/db mice. Streptozotocin-induced (45 mg/kg) diabetic rats were subcutaneously treated with hexaquis(benzylammonium) decavanadate (2.5 μmol/kg) (B6V10, solid squares, FIG. 8A) or with decavanadate (2.5 μmol/kg) (V10, open circles, FIG. 8A) delivered subcutaneously by osmotic minipumps implanted in the dorsal region. Diabetic rats were also sham-operated (untreated, solid diamonds, FIG. 8A). […] These experiments were repeated using an oral administration protocol. Streptozotocin-induced (45 mg/kg) diabetic rats were orally treated with hexaquis(benzylammonium) decavanadate (5 μmol/kg from day 0 to day 7 and 10 μmol/kg/day from day 7 to day 17) (B6V10, solid squares, FIG. 8B) or received decavanadate (10 μmol/kg) (V10, open circles, FIG. 8B). Nondiabetic rats were also untreated (solid triangles, FIG. 8B).

[5] = system: streptozotocin-induced diabetic rats with undetectable circulating insulin
Description: Male Wistar rats weighting 180-220 g were purchased from Harlan (Interfauna Ibèrica S.A., Spain). Diabetes was induced by a single intraperitoneal injection of a freshly prepared solution of streptozotocin (in some studies the dose was 45 mg/kg body weight and in some others 100 mg/kg body weight dissolved in 50 mM citrate buffer, pH 4.5). Only diabetic animals with glycemia above 300 mg/dl were used. The animals were housed in animal quarters at 22° C. with a 12 h light/12 h dark cycle and were fed ad libitum. All procedures used were approved by the animal ethical committee of the University of Barcelona, Spain.
Osmotic minipumps delivering B6V10 (2.5 μmol/kg body wt/day) or decavanadate (2.5 μmol/kg body wt/day) were implanted subcutaneously in diabetic rats anaesthetised by ketamine hydrochloride (95 mg/kg) and xylasine (10 mg/kg). […] Glycemia was measured on arterio-venous blood collected from the tail vessels at 09:00 am for two weeks, before the administration of vanadate. Insulin concentrations were determined before and after treatment. In another set of experiments, B6V10 was orally administered at a single dose of 5 μmol/kg/day during the first week and 10 μmol/kg/day during 2 additional weeks by gastric gavage. A control group received the corresponding decavanadate salt in the absence of benzylamine. At the end of the treatment, animals were sacrificed and the liver, fat pad, heart and lung were kept at −80° C. and the plasma at −20° C. until their use for in vitro analysis.
In glucose tolerance tests and in chronic treatments, circulating glucose concentrations were determined by a rapid glucose analyser (Accutrend® Sensor Comfort, Roche, Basel. Switzerland). Plasma insulin (IRI) concentration was determined by ELISA method using a kit obtained from Crystal Chem. Inc. (Downers Grove, Ill.).
To this end, rats were made diabetic by the injection of a large dose of streptozotocin (100 mg/kg) that eliminates β-pancreatic insulin content.

[6] = listed as hexaquis(benzylammonium) decavanadate

EC50 ([1]; isolated rat adipocytes, read-out: semimaximal effect on glucose transport): > 1000 nM
Substance: hexaquis(benzylammonium) decavanadate [Example B6V10]
stimulation of glucose transport compared with combination of 100 μM benzylamine and 100 μM vanadate ([1]; 25 μM B6V10, data not shown): greater stimulation
stimulatory effect on glucose transport in the presence of semicarbazide [1]: completely blocked
stimulatory effect on glucose transport in the presence of semicarbazide [1, 6]: completely blocked; also recorded: inhibited
maximum effect on glucose transport compared with benzylamine and vanadate in combination ([1]; combination 100 μM sodium vanadate and 100 μM benzylamine (FIG. 1)): greater
maximal effect on glucose transport relative to the maximal stimulation caused by insulin ([1]; insulin 100 nM): 85%
concentration at which maximal effect on glucose transport was observed ([1]; isolated rat adipocytes): 2.5 µM
concentration from which stimulation of glucose transport was perceptible ([1]; isolated rat adipocytes): 0.5 µM
stimulation of glucose transport ([1]; isolated rat adipocytes): stimulated glucose transport in rat adipocytes in a concentration-dependent manner
stimulation of glucose transport ([1]; isolated rat adipocytes, listed as hexaquis(benzylammonium) decavanadate): pronounced stimulation
protein kinase B phosphorylation [2]: rapidly stimulated
time after addition at which protein kinase B phosphorylation was detectable [2]: 2.5 min
protein kinase B phosphorylation in the presence of semicarbazide ([2]; semicarbazide 1 mM, 45 min): blocked
tyrosine phosphorylation of insulin receptors [3]: undetectable
time of treatment after which reduction of hyperglycemia was detected ([4]; 2.5 μmol/kg/day subcutaneous): four
effect on glycemia [4]: significant correction of hyperglycemia; also recorded: significant lowering in blood glucose levels; also recorded: ameliorated hyperglycemia
effect on glycemia [4, 6]: rapid reduction of the hyperglycemia
day of treatment from which glycemia differed significantly from the untreated group ([4]; Bonferroni post-tests, P<0.01, FIG. 8A): 8
plasma glucose ([5]; after 28 days, 2.5 μmol/kg): reduced
plasma insulin ([5]; after 28 days, 2.5 μmol/kg): without any observable change
body weight or organ weights ([5]; rat, in vivo): did not affect
